# From US8999654B2, “Method of identifying a compound for the treatment or prevention of obesity” (Omeros Corporation, priority 2003, dated 2015)
# Experiments:
# [1] = test system: CHO cells stably transfected with a GPCR expression vector; assay: Intracellular calcium measurement using FLIPR; format: cell-based; settings: positive controls; FLIPR fluorescence, signal measured for approximately 200 seconds
# Procedure: Changes in intracellular calcium levels are another recognized indicator of G protein-coupled receptor activity, and such assays can be employed to screen for modulators of GPCR activity. For example, CHO cells stably transfected with a GPCR expression vector are plated at a density of 40,000 cells/well in 96-well plates specially designed to discriminate fluorescence signals emanating from the various wells on the plate. The cells are incubated for 60 minutes at 37° C. in modified Dulbecco's PBS containing pyruvate and 1 g/L glucose with the addition of 1% fetal bovine serum and one of four calcium indicator dyes (Fluo-3™ AM, Fluo-4™ AM, Calcium Green™-1 AM, or Oregon Green™ BAPTA-1 AM). Plates are washed once with modified Dulbecco's PBS without 1% fetal bovine serum and incubated for 10 minutes at 37° C. to remove residual dye from the cellular membrane. […] Fluorescence is measured by Molecular Device's FLIPR with an argon laser (excitation […]) (Kuntzweiler et al., Drug Development Research, 44(1):14-20 (1998)).
# Basal fluorescence of cells was measured for 20 seconds prior to addition of candidate agonist, ATP, or A23187, and the basal fluorescence level was subtracted from the response signal. The calcium signal is measured for approximately 200 seconds, taking readings every two seconds. […]
# [2] = test system: GPR88 KO and WT mice; assay: Amphetamine-induced reduction of prepulse inhibition (PPI) of acoustic startle; settings: amphetamine 2.5 mg/kg i.p., tested 30 min later
# [3] = test system: WT and GPR88 KO mice; assay: Amphetamine-induced hyperactivity (locomotor activity in activity chambers); format: in vivo, mouse; settings: amphetamine 2.5 mg/kg i.p., 30 minutes after injection, monitored 20 min, both WT and GPR88 KO mice, p<0.001
# Procedure: Open field activity was monitored in VersaMax chambers (Accuscan Instruments, Columbus, Ohio) measuring 40×40 cm. Locomotor activity was detected by photobeams breaks as the animal crossed each beam. The animal was placed in the center of the field and then left undisturbed for a period of time (20 min to 2 hr) in order to measure its spontaneous activity in a novel environment. Measurements used to assess locomotor activity included: horizontal activity, total distance traveled, vertical activity (rearing events—animal raises up on hindlimbs), rotation, stereotypy, and distance traveled in the center compared to total distance traveled (center: total distance ratio).
# Amphetamine-induced hyperactivity of GPR88 knockout mice was measured by injecting the animals with amphetamine and monitoring the animals' activity levels.
# [4] = test system: WT and GPR88 KO mice; assay: Amphetamine-induced reduction of prepulse inhibition (PPI) of the acoustic startle response; settings: amphetamine 2.5 mg/kg i.p., tested 30 minutes later, both WT and GPR88 KO mice (129sv)
# [5] = test system: GPR88 KO and WT mice; assay: Amphetamine-induced hyperactivity, open field activity test; format: in vivo, mouse; settings: amphetamine 2.5 mg/kg i.p., 30 min before test, monitored 20 min; both WT and GPR88 KO mice, p<0.001
# Source text: However, the activity level of KO mice (n=18) was much higher than that of the WT mice (n=18) (p<0.001 for the first 4-min block, p<0.05 for the second 4-min block, p<0.05 during the whole 20-min period). There was a strong genotype×treatment interaction for the first 4-min block (F(3,68)=10.5, p<0.01, two-way ANOVA).
# Another test assays open field activity. Locomotor activity is detected by photobeam breaks as the animal crosses each beam. Measurements used to assess locomotor activity include, for example, total distance traveled, total number of rearing events (animal raises up on hindlimbs), and distance traveled in the center compared to total distance traveled (center: total distance ratio). Typically, mice are placed in the center of the field. Mice will normally explore the edges/walls first and then, over time, spend more time in the center as they become familiar with the environment. Open field activity determination provides data on the general activity level of mice (i.e. hypo- or hyper-active), as well as an indication of the animal's anxiety-related behaviors in an open-space.
# [6] = test system: WT and GPR85 KO mice; settings: 2.5 g/kg i.p. ethanol, rectal temperature 30 minutes post injection, both WT and GPR85 KO mice
# Procedure: Initial sensitivity to alcohol is measured in mice after a single (acute) dose. […] Core body temperature was measured rectally (T0) (Physitemp) and then the mice were administered an i.p. dose of 2.5 mg/kg and placed in a Plexiglas dosing chamber. that is the same size as the animal's cage. Core body temperature was measured rectally 30 minutes post injection (T1) and returned to their home cage. Mice were housed in the testing room overnight.
smiles,measurement,setting,value
CNc1ccc2oc(C[C@H]3O[C@@]4(CC[C@H]3C)O[C@H]([C@H](C)C(=O)c3ccc[nH]3)[C@H](C)C[C@H]4C)nc2c1C(=O)O [A23187],increase of calcium signal above baseline levels,[1],200%
Nc1ncnc2c1ncn2[C@@H]1O[C@H](COP(=O)(O)OP(=O)(O)OP(=O)(O)O)[C@@H](O)[C@H]1O [ATP],increase of calcium signal above baseline levels,[1],200%
CC(N)Cc1ccccc1 (centres unmarked) [amphetamine],startle responses to the 120 dB stimulus after amphetamine treatment,[2]; both WT and GPR88 KO mice (129sv),significantly decreased
same,PPI after amphetamine treatment,"[2]; both WT and GPR88 KO mice, p<0.001",significant reduction of PPI
same,locomotor activity compared to baseline in the absence of drugs,[3],significantly higher activity
same,startle response to the 120 dB stimulus,[4],significantly decreased
same,locomotor activity after amphetamine compared to baseline locomotor activity in the absence of drugs,[5],significantly higher activity
CCO [ethanol],effect on core body temperature (hypothermic effect),[6],reduced body temperature in both WT and KO mice
